# Assays:
# [1] = system: mice after neuropathic pain; test: Bright/dark box test, neuropathic pain; assay type: in vivo; details: 3 mg/kg IP, 3 mg/kg
# [2] = system: mice treated with yeast polysaccharide; test: Elevated plus maze test (EPM), visceral pain; assay type: in vivo; details: 3 mg/kg IP
# Method: (§1) The visceral pain is induced by injecting yeast polysaccharide into the mice colony, and the yeast polysaccharide is derived from Saccharomyces cerevisiae (Sigma), wherein one kind of dextran is resident on the cell wall of the yeast and is identified as a protein-carbohydrate complex. Specifically, the mice were anesthetized after inhaling 1-3% isoflurane, and then a […] suspension of yeast polysaccharide (formulated as a 30 mg/ml solution in physiological saline) was injected into the colon of the mice by using a 24 mm long plastic feed needle within 2 minutes. The control group was injected with 0.1 ml physiological saline. The yeast polysaccharide or physiological saline was injected daily for 3 days. A visceral pain behavior test was carried out according to the Laird procedure. The number of times the mice licking the abdomen within 10 minutes was recorded, excluding other grooming behaviors, stretching of whole body, pressing the abdomen against the floor, and an 1-2-second arched posture. On day 1, 7 and 14 after the injection into the colon, an open field test was carried out from 9 am to 12 pm, and the entire test was a double-blind test. Prior to the behavioral test, the mice were acclimated for 30 minutes in an observation room. The mice were placed at the middle of a new open zone (43.2×43.2×30.5 cm^3) with micro light (<50 lux) and a fan. The movement distance, vertical count, movement count, stereotypic behavior count, and jumping count of animals were recorded within 30 minutes by means of an activity monitoring system equipped with multiple pairs of packaged light beam sets.
# (§2) An anxious animal model of the prior art—the elevated plus maze test (EPM) was adopted. The mice were acclimated for 30 minutes in the room prior to the behavior observation. The EPM was composed of two open arms (250 lux) and two closed arms (350 lux) arranged opposite to each other. For each test, an individual animal was placed at the center of the test position and allowed to move freely. The test is carried out for 5 minutes. The number of entering the test position for each arm and the time spent therefore were recorded.
# (§3) The EPM test tested the anxiety behavior of mice after the test treatment. The physiological saline, non-crystalline NB001 (3 mg/kg), the crystal of the present invention (3 mg/kg), and Gabapentin (30 mg/kg) as a positive control were intraperitoneally injected (IP) into the mice treated with yeast polysaccharide respectively. The behaviors of Mice were observed 28 days after the yeast polysaccharide treatment.
# [3] = system: mice after neuropathic pain; test: Elevated plus maze test (EPM), neuropathic pain; assay type: in vivo; details: 3 mg/kg IP, 3 mg/kg
# Method: as §2
# The other two sets of tests were conducted to test the effect of the crystal of the present invention on inhibiting anxiety caused by chronic pain and neuropathic pain.
# as §3
# [4] = system: bone cancer pain model in rat (Walker 256 cells); test: Paw withdrawal thermal latency (PWL) in bone cancer pain model; assay type: in vivo, SD rats; details: 20 mg/kg, i.g.
# Method: 1. Animals 50 SD rats (180-220 g), placed under a quiet and warm (22° C.) environment without strong light irradiation, having free access to feed and water.
# 2. Cell Culture: SD Rat homologous cancer cell strains Walker 256 preserved by the Laboratory Animal Center, Forth Military Medical
# University, or a commercially available product can be used. RPMI 1640 culture medium (Gibco Inc. of US, containing 100 U/ml each of 10% fetal bovine serum, penicillin, and streptomycin) was used, and the tumor cells were incubated as suspension cells in a 37° C. incubator under 5% CO2, with the medium replaced every other day, and 2 days for 1 passage. The cells were harvested at the 3rd passage, with a cell concentration of 2×10^5/10 μl.
# 3. Establishment of bone cancer pain model in rat: the rats were operated at the left knee with a small incision after anesthesia (40 mg/kg of pentobarbital sodium) according to sterile surgical operation procedures, the muscle was stripped off gently and the patellar ligament is cut open to expose the distal femur, with 1 mm syringe needle inserted from the intercondylar fossa vertically into the marrow cavity, with an inserting distance no more than 5 mm to prevent punching. Then a 20 μl micro-injector was inserted into the marrow cavity to slowly inject 10 μl of a suspension containing the Walker 256 cells (2×10^5 cancer cells per 10 μl). The injector was stayed there for a few minutes after the injection, and then the needle pinhole was immediately sealed with sterile bone wax. The tumor cells leaking out of the marrow cavity were killed with 75% ethyl alcohol, and then the rat was sutured under sterile conditions layer by layer. The same operation was performed in the sham operation group, except that only the same volume of sterile saline was injected into the marrow cavity slowly.
# 6. Drug intervention: On day 18 after the surgical operation, the SD rats of the operation group were randomized into 6 groups, i.e., respectively the model group; non-crystalline NB001 group (20 mg/kg, i.g.); the group of the crystal of the present invention (20 mg/kg, i.g.); morphine (2 mg/kg, i.p.); and gabapentin (100 mg/kg, i.g.). The new crystal form and non-crystalline form of the AC1 inhibitor NB001 were both formulated with sterile saline, and morphine and gabapentin were used as positive control drugs. All drugs were administered twice daily for 3 days, and the pain threshold was measured within 2 hours after the last administration on day 3
# 7. Assessment of rat pain behavior:
# Paw withdrawal thermal latency (PWL): the PWL was measured by using a PL-200 thermal pain stimulator (8V, 50 W, with a strength of 100%). The time period since the time irradiating the middle portion of the planta pedis at the operation side of the rat with light till the time the rat lifted its leg to keep out of the light was TWL. To prevent tissue injury, a cut-off time of 80 s was set, each rat was measured for 3 times with an interval of 5 min, and the results were averaged.
# [5] = system: mice treated with yeast polysaccharide; test: Bright/dark box test, visceral pain; assay type: in vivo; details: 3 mg/kg IP
# Method: as §1
# Bright/dark box test: The test procedure was carried out by using an improved method in accordance with the prior art. The device was composed of a rectangular organic glass box (44×8.5×25 cm^3), which is separated into bright and dark compartments with the equal size by using a door. A 60 watt lamp (400 lux) in turn-on state was placed at 30 cm above the box to irradiate the bright compartment. Each animal was first placed in the dark compartment for 20 seconds, and then the door leading to the bright compartment was open. The time each animal stayed in the dark compartment and the time each animal enters the bright compartment within 10 minutes were recorded.
# In order to confirm the effect of the crystal of the present invention on inhibiting anxiety, mice were subjected to a bright/dark box test, and the results were as shown in Table 8. The physiological saline, non-crystalline NB001 (3 mg/kg), the crystal of the present invention (3 mg/kg), and Gabapentin (30 mg/kg) as a positive control were intraperitoneally injected (IP) into the mice treated with yeast polysaccharide respectively. The behaviors of Mice were observed 28 days after the yeast polysaccharide treatment.
structure (smiles),measurement,setting,value
"Nc1ncnc2c1ncn2CCNCCCCCO [New NB001, 5-(((2-(6-amino)-9H-purin-9-yl)ethyl)amino)pentan-1-ol]",% time in the open arm,[1],18.5 ± 1.4 (8) %
same,therapeutic effect in EPM test as compared with the positive control group,"[2]; Table 7, listed as the crystal of the present invention",extremely significant
same,% time in the open arm,"[2]; Visceral pain, 3 mg/kg",10.3 ± 1.2 (8) %
same,% time in the open arm,[3],18.5 ± 1.4 (8) %
same,analgesic effect (PWL) as compared with the model group,"[4]; twice daily for 3 days, PWL at 2 h after last administration (21d)",better analgesic effect
same,"significance of the analgesic effect (PWL), FIG. 7",[4]; P<0.01,extremely significant
same,therapeutic effect in bright/dark box test as compared with the positive control group,"[5]; Table 8, listed as the crystal of the present invention",extremely significant
same,% time in the open arm,"[5]; Bright/dark box test, Visceral pain, 3 mg/kg",10.3 ± 1.2 (8) %

# Reference: patent publication US9963457B2, “Crystal of 5-((2-(6-amino)-9H-purin-9-yl)ethyl)amino)pentan-1-o1” (FOREVER CHEER INTERNATIONAL LIMITED, priority 2016, dated 2018)
